For 64 compounds, IC50 results are on record in ChEMBL document CHEMBL3639003, “Heteroaryloxycarbocyclyl compounds as PDE10 inhibitors” (2015).

pIC50: −log10 of the molar value.

This assay addresses cAMP and cAMP-inhibited cGMP 3',5'-cyclic phosphodiesterase 10A (Homo sapiens, UniProt Q9Y233). As to the kind of experiment: IMAP TR-FRET Assay: Enzyme Activity. An IMAP TR-FRET assay was used to analyze the enzyme activity (Molecular Devices Corp., Sunnyvale Calif.). 5 uL, of serial diluted PDE10A (BPS Bioscience, San Diego, Calif.) or tissue homogenate was incubated with equal volumes of diluted fluorescein labeled cAMP or cGMP for 60 min in 384-well polystyrene assay plates (Corning, Corning, N.Y.) at room temperature. After incubation, the reaction was stopped by adding 60 uL, of diluted binding reagents and was incubated for 3 hours to overnight at room temperature. The plates were read on an Envision (Perkin Elmer, Waltham, Mass.) for time resolved fluorescence resonance energy transfer. The data were analyzed with GraphPad Prism (La Jolla, Calif.).Enzyme Inhibition. To check the inhibition profile, 5 uL, of serial diluted compounds were incubated with 5 uL, of diluted PDE10 enzyme (BPS Bioscience, San Diego, Calif.) or tissue homogenate in a 384-well polystyrene assay plate (Corning, Corning, N.Y.). For orientation: TR-FRET usually uses a lanthanide donor and a delayed reading to cut background.

Sequence of cAMP and cAMP-inhibited cGMP 3',5'-cyclic phosphodiesterase 10A (Q9Y233 whole entry): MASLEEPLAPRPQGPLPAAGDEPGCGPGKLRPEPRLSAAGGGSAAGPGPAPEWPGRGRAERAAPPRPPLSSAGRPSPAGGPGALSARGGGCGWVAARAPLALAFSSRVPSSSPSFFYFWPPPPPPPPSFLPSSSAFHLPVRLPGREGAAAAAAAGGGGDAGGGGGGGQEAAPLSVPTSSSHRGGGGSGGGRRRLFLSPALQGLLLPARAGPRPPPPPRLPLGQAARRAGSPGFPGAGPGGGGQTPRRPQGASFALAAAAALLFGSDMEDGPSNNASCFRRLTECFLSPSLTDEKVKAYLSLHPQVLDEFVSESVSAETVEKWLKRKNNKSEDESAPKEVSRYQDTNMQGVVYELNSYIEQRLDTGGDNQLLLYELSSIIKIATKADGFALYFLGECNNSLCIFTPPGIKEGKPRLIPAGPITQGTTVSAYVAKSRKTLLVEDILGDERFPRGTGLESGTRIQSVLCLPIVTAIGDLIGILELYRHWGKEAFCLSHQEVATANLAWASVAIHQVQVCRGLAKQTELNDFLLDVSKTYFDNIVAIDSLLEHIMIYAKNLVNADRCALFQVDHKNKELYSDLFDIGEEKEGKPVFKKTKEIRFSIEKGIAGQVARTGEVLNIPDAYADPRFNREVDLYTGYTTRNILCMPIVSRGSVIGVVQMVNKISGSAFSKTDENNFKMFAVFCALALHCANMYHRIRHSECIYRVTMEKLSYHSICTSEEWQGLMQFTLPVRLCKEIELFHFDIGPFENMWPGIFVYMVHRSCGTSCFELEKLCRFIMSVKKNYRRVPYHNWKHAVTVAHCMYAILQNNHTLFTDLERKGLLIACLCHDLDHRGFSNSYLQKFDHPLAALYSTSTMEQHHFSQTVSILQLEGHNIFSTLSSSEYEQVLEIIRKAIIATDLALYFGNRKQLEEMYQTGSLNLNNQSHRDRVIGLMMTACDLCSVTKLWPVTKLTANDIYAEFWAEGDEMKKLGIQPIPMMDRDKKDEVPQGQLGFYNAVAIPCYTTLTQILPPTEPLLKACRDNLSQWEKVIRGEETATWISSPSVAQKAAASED

As for `CC(=O)N1CCC(c2nccnc2O[C@H]2C[C@@H](Nc3ccc(C)cn3)C2)CC1`, the negative-log IC50 (pIC50) was 7.18. For `CC(=O)N1CCN(c2nccnc2O[C@H]2C[C@@H](Nc3ccc4ccccc4n3)C2)CC1` the value was 7.63; for `COC(=O)N1CCC(c2cccnc2O[C@H]2C[C@@H](Nc3nc4ccccc4s3)C2)CC1`, 8.50.

On to `CC1CCN(c2nccnc2O[C@H]2C[C@@H](Nc3nc4ccccc4s3)C2)C1` (some centres undefined), for which the pIC50 was 8.16. On to `Cc1ccnc(N[C@H]2CC[C@H](Oc3ncccc3C3CCOCC3)CC2)c1`, for which the pIC50 was 6.82. Compound `Cc1cc(-c2nccnc2O[C@H]2C[C@@H](Nc3nc4ccccc4s3)C2)ccn1` had a pIC50 of 7.69. `OCC1CCN(c2nccnc2O[C@H]2C[C@@H](Nc3nc4ccccc4s3)C2)CC1` showed a pIC50 of 8.50. Compound `NC(=O)c1ccc(-c2nccnc2O[C@H]2C[C@@H](Nc3ccc4ccccc4n3)C2)cn1` showed a pIC50 of 8.42. `O[C@@H]1CCN(c2nccnc2O[C@H]2C[C@@H](Nc3nc4ccccc4s3)C2)C1`: the negative logarithm of the IC50 (pIC50) is 7.85.

Compound `N#Cc1ccc(-c2nccnc2O[C@H]2C[C@@H](Nc3ncc4ccccc4n3)C2)cn1` showed a negative logarithm of the IC50 (pIC50) of 8.11.

Turning to `O=S1(=O)CCN(c2nccnc2O[C@H]2C[C@@H](Nc3nc4ccccc4s3)C2)CC1`, the negative-log IC50 (pIC50) was 7.73. Compound `c1cnc(O[C@H]2C[C@@H](Nc3nc4ccccc4[nH]3)C2)c(C2CCOCC2)c1` had a pIC50 of 8.82. For the compound `CC(=O)N1CCC(c2nccnc2O[C@H]2C[C@H](Nc3ccc4ccccc4n3)C2)CC1`, the pIC50 was 7.80.

For the compound `Cc1ccc(N[C@H]2C[C@H](Oc3ncccc3C3CCOCC3)C2)nc1`, the pIC50 was 7.75. Turning to `Fc1ccc2nc(N[C@H]3C[C@@H](Oc4nccnc4C4CCOCC4)C3)sc2c1`, the negative-log IC50 (pIC50) is 7.82. For `Fc1ccc2sc(N[C@H]3C[C@@H](Oc4nccnc4C4CCOCC4)C3)nc2c1` the value was 7.74; for `N#Cc1ccc(-c2nccnc2O[C@H]2C[C@@H](Nc3ccc4ccccc4n3)C2)cn1`, 8.08. For `Fc1cccc2sc(N[C@H]3C[C@@H](Oc4nccnc4C4CCOCC4)C3)nc12` the value was 7.89; for `N#CC1CCN(c2cccnc2O[C@H]2C[C@@H](Nc3nc4ccccc4s3)C2)CC1`, 8.90. For `CC(=O)N1CCN(c2nccnc2O[C@H]2C[C@@H](Nc3nc4ccccc4s3)C2)CC1` the value was 8.03; for `Cc1cccnc1N[C@H]1CC[C@H](Oc2ncccc2C2CCOCC2)CC1`, 7.34; for `N#CC1CCN(c2nccnc2O[C@H]2C[C@@H](Nc3ccc4ccccc4n3)C2)CC1`, 8.65.

On to `Cc1ncc(-c2nccnc2O[C@H]2C[C@@H](Nc3nc4ccccc4s3)C2)cn1`, for which the negative-log IC50 (pIC50) was 8.49. For `COCC(=O)N1CCC(c2nccnc2O[C@H]2C[C@@H](Nc3ccc4ccccc4n3)C2)CC1` the value was 8.30.

In turn, `NC(=O)c1ccc(-c2cccnc2O[C@H]2C[C@@H](Nc3nc4ccccc4s3)C2)cn1` gave a negative logarithm of the IC50 (pIC50) of 9.89.

In turn, `COc1ncccc1-c1nccnc1O[C@H]1C[C@@H](Nc2nc3ccccc3s2)C1` had a pIC50 of 8.39. For the compound `FC1(F)CCN(c2nccnc2O[C@H]2C[C@@H](Nc3nc4ccccc4s3)C2)C1`, the pIC50 is 7.95. Compound `c1cnc(O[C@H]2CC[C@H](Nc3ccc4ccccc4n3)CC2)c(C2CCOCC2)c1` had a pIC50 of 7.04.

Compound `O=C(c1nc2ccccc2[nH]1)[C@H]1C[C@H](Oc2ncccc2C2CCOCC2)C1` had a pIC50 of 8.15. In turn, `c1cnc(O[C@H]2C[C@@H](Nc3nc4ccccc4s3)C2)c(C2CCOCC2)c1` had a pIC50 of 9.12.

Regarding `Fc1cnc(O[C@H]2C[C@@H](Nc3nc4c(F)cccc4s3)C2)c(C2CCOCC2)c1`, the negative-log IC50 (pIC50) is 8.27. As for `CC1CCCN(c2nccnc2O[C@H]2C[C@@H](Nc3nc4ccccc4s3)C2)C1` (some centres undefined), the negative-log IC50 (pIC50) is 7.53. Consider `O=C(c1ccccn1)C1CC(Oc2ncccc2C2CCOCC2)C1` (centres undefined), for which the pIC50 was 6.60. On to `COCC(=O)N1CCC(c2nccnc2O[C@H]2C[C@@H](Nc3nc4ccccc4s3)C2)CC1`, for which the negative logarithm of the IC50 (pIC50) is 8.18. Consider `CN1CCN(c2nccnc2O[C@H]2C[C@@H](Nc3ncc4ccccc4n3)C2)CC1`, for which the negative logarithm of the IC50 (pIC50) is 6.50.

`c1cnc(O[C@H]2C[C@@H](Nc3ccc4ccccc4n3)C2)c(C2CCOCC2)c1`: the negative-log IC50 (pIC50) is 8.82. For `Fc1cnc(O[C@H]2C[C@@H](Nc3nc4cc(F)ccc4s3)C2)c(C2CCOCC2)c1` the value was 8.46; for `c1ccc2nc(N[C@H]3C[C@@H](Oc4nccnc4C4CCOCC4)C3)ccc2c1`, 8.12.

On to `Clc1ccc(C2=CCOCC2)c(O[C@H]2C[C@@H](Nc3nc4ccccc4s3)C2)n1`, for which the negative-log IC50 (pIC50) is 8.45. Compound `Cc1cc(-c2cccnc2O[C@H]2CC[C@H](Nc3nc4ccccc4s3)CC2)ccn1` showed a negative-log IC50 (pIC50) of 7.71. In turn, `CC(=O)N1CCC(c2nccnc2O[C@H]2C[C@H](Nc3ccc(C)cn3)C2)CC1` had a negative logarithm of the IC50 (pIC50) of 7.07. For `c1cnc(O[C@H]2CC[C@H](Nc3nc4ccccc4o3)CC2)c(C2CCOCC2)c1` the value was 7.92; for `COC(=O)N1CC(c2nccnc2O[C@H]2C[C@@H](Nc3nc4ccccc4s3)C2)C1`, 7.76.

Turning to `COC(=O)N1CCC(c2nccnc2O[C@H]2C[C@@H](Nc3nc4ccccc4s3)C2)CC1`, the pIC50 is 8.37. As to `OCC1CCCN(c2nccnc2O[C@H]2C[C@@H](Nc3nc4ccccc4s3)C2)C1` (some centres undefined), the negative logarithm of the IC50 (pIC50) was 8.44. For `Cc1cnccc1-c1nccnc1O[C@H]1C[C@@H](Nc2nc3ccccc3s2)C1` the value was 8.37; for `c1cnc(O[C@H]2CC[C@H](Nc3nc4ccccc4s3)CC2)c(C2CCOCC2)c1`, 7.49; for `c1cnc(O[C@H]2C[C@H](Nc3nc4ccccc4[nH]3)C2)c(C2CCOCC2)c1`, 8.58. `NC(=O)c1ccc(-c2nccnc2O[C@H]2C[C@@H](Nc3nc4ccccc4s3)C2)cn1` had a negative-log IC50 (pIC50) of 8.53. As to `N#Cc1ccc(-c2nccnc2O[C@H]2C[C@@H](Nc3nc4ccccc4s3)C2)cn1`, the pIC50 was 8.13. Regarding `COCC(=O)N1CCC(c2cccnc2O[C@H]2C[C@@H](Nc3ccc4ccccc4n3)C2)CC1`, the pIC50 was 9.02. On to `N#CC1CCN(c2nccnc2O[C@H]2C[C@@H](Nc3nc4ccccc4s3)C2)CC1`, for which the negative-log IC50 (pIC50) is 8.64. For `Cc1cccc(N[C@H]2CC[C@H](Oc3ncccc3C3CCOCC3)CC2)n1` the value was 5.76; for `N#CC1CCN(c2nccnc2O[C@H]2C[C@@H](Nc3nc4ccccc4s3)C2)C1` (some centres undefined), 8.97; for `O[C@H]1CCN(c2nccnc2O[C@H]2C[C@@H](Nc3nc4ccccc4s3)C2)C1`, 7.76.

`CN1CCN(c2nccnc2O[C@H]2C[C@@H](Nc3nc4ccccc4s3)C2)CC1` showed a negative logarithm of the IC50 (pIC50) of 6.91. `CC(=O)N1CCC(c2nccnc2O[C@H]2C[C@@H](Nc3nc4ccccc4s3)C2)CC1`: the pIC50 was 8.56. For the compound `OCC1CCN(c2nccnc2O[C@H]2C[C@@H](Nc3ncc4ccccc4n3)C2)CC1`, the pIC50 was 7.96.

As for `Clc1ccc(-c2nccnc2O[C@H]2C[C@@H](Nc3nc4ccccc4s3)C2)cn1`, the pIC50 is 8.12.

The compound `Cc1ccc(-c2nccnc2O[C@H]2C[C@@H](Nc3nc4cc(F)ccc4s3)C2)cn1` showed a negative logarithm of the IC50 (pIC50) of 7.71. `N#Cc1ccc(-c2cccnc2O[C@H]2C[C@H](Nc3nc4ccccc4s3)C2)cn1` had a negative logarithm of the IC50 (pIC50) of 8.53. For the compound `CC(=O)N1CCC(c2cccnc2O[C@H]2C[C@@H](Nc3ccc4ccccc4n3)C2)CC1`, the negative-log IC50 (pIC50) was 8.88. `c1ccc2sc(N[C@H]3C[C@@H](Oc4nccnc4N4CCOCC4)C3)nc2c1` had a negative-log IC50 (pIC50) of 7.65.

`c1cnc(O[C@H]2C[C@H](Nc3nc4ccccc4s3)C2)c(C2CCOCC2)c1` had a pIC50 of 8.50.

For orientation: pIC50 means the negative decadic logarithm of the IC50, by convention in mol/L.
